Source: patent publication US11584746B2, “Inhibitors of EGFR and methods of use thereof” (DANA-FARBER CANCER INSTITUTE, INC., priority 2018, dated 2023)
Like-named read-outs stand apart in the source and are kept apart here.

Experiments:
[1] = tested on: EGFR T790M/L858R Ba/F3 cell line; test: Ba/F3 cell proliferation (MTS assay), EGFR T790M/L858R; assay type: cell-based, murine; conditions: for inhibition at 1 µM: compound at 1 μM, EGFR T790M/L858R Ba/F3, read-out: Inhibition of proliferation, Activity (% DMSO control)
Description: The selectivity between wild-type EGFR and EGFR containing one or more mutations as described herein can also be measured using cellular proliferation assays where cell proliferation is dependent on kinase activity. […] Proliferation assays are performed at a range of inhibitor concentrations (e.g., 10 μM, 3 μM, 1.1 μM, 330 nM, 110 nM, 33 nM, I1 nM, 3 nM, 1 nM) and an EC50 is calculated.
All cell lines were maintained in RPMI 1640 (Cellgro; Mediatech Inc., Herndon, Calif.) supplemented with 10% FBS 100 units/mL penicillin, 100 units/mL streptomycin, and 2 mM glutamine. […] The EGFR I941R mutation was introduced via site directed mutagenesis using the Quick Change Site-Directed Mutagenesis kit (Stratagene; La Jolla, Calif.) according to the manufacturer's instructions. All constructs were confirmed by DNA sequencing. The constructs were shuttled into the retroviral vector JP1540 using the BD Creator™ System (BD Biosciences). Ba/F3 cells were infected with retrovirus and according to standard protocols, as described previously (Zhou 2009). Stable clones were obtained by selection in puromycin (2 μg/ml).
Growth and inhibition of growth was assessed by MTS assay and was performed according to previously established methods (Zhou 2009). The MTS assay is a colorimetric method for determining the number of viable cells that is based on the bioreduction of MTS by cells to a formazan product that is soluble in cell culture medium and can be detected spectrophotometrically. […] All experimental points were set up in six wells and all experiments were repeated at least three times. […] The curves were fitted using a non-linear regression model with a sigmoidal dose response.

[2] = tested on: EGFR L858R/T790M/C797S Ba/F3 cell line; test: Ba/F3 cell proliferation (MTS assay), EGFR L858R/T790M/C797S; assay type: cell-based, murine; conditions: Mus musculus, BaF3, compound at 1 μM, read-out: Inhibition of proliferation, Activity (% DMSO control)
Description: The selectivity between wild-type EGFR and EGFR containing one or more mutations as described herein can also be measured using cellular proliferation assays where cell proliferation is dependent on kinase activity. For example, murine Ba/F3 cells transfected with a suitable version of wild-type EGFR (such as VIII; containing a WT EGFR kinase domain), or Ba/F3 cells transfected with L858R/T790M, Del/T790M/L718Q, L858R/T790M/L718Q, L858R/T790M/C797S, Del/T790M/C797S, L858R/T790M/I941R, or Exon 19 deletion/T790M can be used. Proliferation assays are performed at a range of inhibitor concentrations (e.g., 10 μM, 3 μM, 1.1 μM, 330 nM, 110 nM, 33 nM, I1 nM, 3 nM, 1 nM) and an EC50 is calculated.
The EGFR mutant L858R, Del E746_A750, L858R/T790M, DelE746_A750/T790M, L858R/T790M/C797S and Del/T790M/C797S Ba/F3 cells were previously described (Zhou et al., Nature 462, (2009), 1070-1074). All cell lines were maintained in RPMI 1640 (Cellgro; Mediatech Inc., Herndon, Calif.) supplemented with 10% FBS 100 units/mL penicillin, 100 units/mL streptomycin, and 2 mM glutamine. L858R cells were maintained in ACL-4 media (Invitrogen, Carlsbad, Calif.) supplemented with 5% FBS, 100 units/mL penicillin, 100 units/mL streptomycin, and 2 mM glutamine. The EGFR I941R mutation was introduced via site directed mutagenesis using the Quick Change Site-Directed Mutagenesis kit (Stratagene; La Jolla, Calif.) according to the manufacturer's instructions. All constructs were confirmed by DNA sequencing. The constructs were shuttled into the retroviral vector JP1540 using the BD Creator™ System (BD Biosciences). Ba/F3 cells were infected with retrovirus and according to standard protocols, as described previously (Zhou 2009). Stable clones were obtained by selection in puromycin (2 μg/ml).
Growth and inhibition of growth was assessed by MTS assay and was performed according to previously established methods (Zhou 2009). The MTS assay is a colorimetric method for determining the number of viable cells that is based on the bioreduction of MTS by cells to a formazan product that is soluble in cell culture medium and can be detected spectrophotometrically. Ba/F3 cells of different EGFR genotypes were exposed to treatment and the number of cells used per experiment determined empirically and has been previously established (Zhou 2009). All experimental points were set up in six wells and all experiments were repeated at least three times. […] The curves were fitted using a non-linear regression model with a sigmoidal dose response.

[3] = molecular target: recombinant EGFR T790M/L858R kinase (Homo sapiens (Human), UniProt P00533, L858R/T790M); test: HTRF-based EGFR biochemical assay
Description: EGFR biochemical assays are carried out using a homogeneous time-resolved fluorescence (HTRF) assay. The reaction mixtures contain biotin-Lck-peptide substrate, wild type, or mutant EGFR enzyme in reaction buffer. Enzyme concentrations are adjusted to accommodate varying kinase activity and ATP concentrations. Compounds of the present application are diluted into the assay mixture and IC50 values are determined using 12-point inhibition curves.
EGFR kinase proteins were purified by glutathione-affinity chromatography followed by size-exclusion chromatography after cleavage with TEV or thrombin to remove the GST fusion partner following established procedures. (Yun 2008; Yun 2007).
EGFR biochemical assays were carried out using a homogeneous time-resolved fluorescence (HTRF) assay as described previously. The reaction mixtures contained 1 μM biotin-Lck-peptide substrate, wild type or mutant EGFR enzyme in reaction buffer (50 mM HEPES pH 7.1, 10 mM MgCl2, 0.01% BSA. 1 mM TCEP and 0.1 mM Na3VO4) at a final volume of 10 μL. […] All reactions were carried out at room temperature in white ProxiPlate™ 384-well Plus plates (PerkinElmer) and were quenched with 5 μL of 0.2 M EDTA at 60 min. Five μL per well of the detection reagent containing 2.5 ng PT66K (Cis-bio) and 0.05 μg SAXL (Prozyme) were added, and the plates were then incubated at room temperature for 1 hour and read with an EnVision plate reader.

[4] = tested on: patients with NSCLC resistant to gefitinib or erlotinib; conditions: cited from earlier work
[5] = Mus musculus, BaF3, read-out: Ba/F3 cellular activity (EC50) T790M/L858R
[6] = read-out: Ba/F3 cellular activity (EC50) T790M/L858R + Cetuximab (1 μg/mL), presence of 1 μg/mL cetuximab

Sequence of recombinant EGFR T790M/L858R kinase (P00533 696-1022 T790M/L858R): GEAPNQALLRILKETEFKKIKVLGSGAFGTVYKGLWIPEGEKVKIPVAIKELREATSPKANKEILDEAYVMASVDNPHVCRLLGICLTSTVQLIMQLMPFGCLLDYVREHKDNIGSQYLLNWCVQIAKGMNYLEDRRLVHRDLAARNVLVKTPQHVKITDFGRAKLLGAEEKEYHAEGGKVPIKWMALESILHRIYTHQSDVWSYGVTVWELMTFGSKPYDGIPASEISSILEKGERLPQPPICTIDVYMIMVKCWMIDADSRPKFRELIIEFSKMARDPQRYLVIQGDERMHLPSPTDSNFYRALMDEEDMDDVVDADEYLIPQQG

SMILES | inhibition at 1 µM ([1]; Mus musculus, BaF3) [%] | EC50 [1, 5] [nM] | EC50 [1, 6] [nM] | inhibition at 1 µM [2] [%] | IC50 [3] [nM] | RR [4] [%]
O=C1c2cc(-c3ccc4[nH]ccc4c3)ccc2Nc2ccc(F)cc2N1Cc1cccnc1 [Compound I-9] | ≥ 75 | ≥ 750 | ≥ 750 | ≥ 75 |  | 
CN1CCN(c2ccc(Oc3ccc4c(c3)C(=O)N(Cc3ccccc3)c3cc(F)ccc3N4)cc2)CC1 [Compound I-20, 10-benzyl-8-fluoro-2-(4-(4-methylpiperazin-1-yl)phenoxy)-5,10-dihydro-11H-dibenzo[b,e][1,4]diazepin-11-one] |  | ≥ 750 | 250 to 500 |  | < 250 | 
O=C1c2cc(-c3ccc(N4CCNCC4)cc3)ccc2Nc2ccc(F)cc2N1Cc1cccc2cc[nH]c12 [Compound I-18] |  | ≥ 750 | < 250 |  | < 250 | 
CN1CCC(n2cc(-c3ccc4c(c3)C(=O)N(Cc3cccc(F)c3)c3cc(F)ccc3N4)cn2)CC1 [Compound I-22] |  | ≥ 750 | ≥ 750 |  | < 250 | 
O=C1c2cc(-c3ccc(-c4cn[nH]c4)cc3)ccc2Nc2ccc(F)cc2N1Cc1ccccc1 [Compound I-4] | ≥ 75 | ≥ 750 | 250 to 500 | ≥ 75 | < 250 | 
CN(C)C/C=C/C(=O)Nc1cc2c(Nc3ccc(F)c(Cl)c3)ncnc2cc1O[C@H]1CCOC1 [Afatinib] |  |  |  |  |  | < 10
CCC(=O)Nc1ccc2c(c1)N(Cc1ccccc1)C(=O)c1cc(-c3ccc4[nH]ccc4c3)ccc1N2 [Compound I-16] |  | 250 to 500 | 250 to 500 |  |  | 
O=C1c2cc(-c3ccc(N4CCNCC4)cc3)ccc2Nc2ccc(F)cc2N1Cc1cccnc1 [Compound I-6] | ≥ 75 | ≥ 750 | ≥ 750 | ≥ 75 |  | 
O=C1c2cc(-c3ccc(N4CCNCC4)cc3)ccc2Nc2ncc(F)cc2N1Cc1ccccc1 [Compound I-12] |  | ≥ 750 | ≥ 750 |  |  | 
CN1CCC(n2cc(-c3ccc4c(c3)C(=O)N(Cc3cc(F)cc(F)c3)c3cc(F)ccc3N4)cn2)CC1 [Compound I-24] |  | ≥ 750 | ≥ 750 |  | < 250 | 
CN1CCC(n2cc(-c3ccc4c(c3)C(=O)N(Cc3cccc5cc[nH]c35)c3cc(F)ccc3N4)cn2)CC1 [Compound I-25] |  | ≥ 750 | ≥ 750 |  | < 250 | 
CC(=O)Nc1ccc2c(c1)N(Cc1ccccc1)C(=O)c1cc(-c3ccc4[nH]ccc4c3)ccc1N2 [Compound I-15] |  | ≥ 750 | ≥ 750 |  |  | 
CN1CCC(n2cc(-c3ccc4c(c3)C(=O)N(Cc3cccc(Cl)c3)c3cc(F)ccc3N4)cn2)CC1 [Compound I-23] |  | ≥ 750 | ≥ 750 |  | < 250 | 
O=C1c2cc(-c3ccc(N4CCNCC4)cc3)ccc2Nc2ccc(F)cc2N1Cc1nccs1 [Compound I-7] | ≥ 75 | ≥ 750 | ≥ 750 | ≥ 75 | < 250 | 
O=C1c2cc(-c3ccc4[nH]ccc4c3)ccc2Nc2ccc(F)cc2N1Cc1ccccc1 [Compound I-2] | ≥ 75 | ≥ 750 | < 250 | ≥ 75 | < 250 | 
O=C1c2cc(Br)ccc2Nc2ccc(F)cc2N1Cc1ccccc1 [I-a] |  | ≥ 750 | 250 to 500 |  | < 250 | 
O=C1c2cc(-c3ccc4[nH]ccc4c3)ccc2Nc2ccc(F)cc2N1Cc1nccs1 [Compound I-10] | ≥ 75 | ≥ 750 | ≥ 750 | ≥ 75 |  | 
CN1CCC(n2cc(-c3ccc4c(c3)C(=O)N(Cc3ccccc3)c3cc(F)ccc3N4)cn2)CC1 [Compound I-3] | ≥ 75 | ≥ 750 | < 250 | ≥ 75 | < 250 | 
O=C1c2cc(-c3ccc(N4CCNCC4)cc3)ccc2Nc2ccc(F)cc2N1Cc1ccc2cc[nH]c2c1 [Compound I-19] |  | ≥ 750 | ≥ 750 |  |  | 
O=C1c2cc(-c3ccc(N4CCNCC4)cc3)ccc2Nc2ccccc2N1Cc1ccccc1 [Compound I-11] | ≥ 75 | ≥ 750 | 250 to 500 | ≥ 75 | < 250 | 
O=C1c2cc(-c3ccc(N4CCNCC4)cc3)ccc2Nc2ccncc2N1Cc1ccccc1 [Compound I-13] |  | ≥ 750 | ≥ 750 |  |  | 
CN1CCC(c2ccc(-c3ccc4c(c3)C(=O)N(Cc3ccccc3)c3cc(F)ccc3N4)cc2)CC1 [Compound I-17] |  |  |  |  | < 250 | 
O=C1c2cc(-c3ccc(N4CCNCC4)cc3)ccc2Nc2ccc(F)cc2N1c1ccccc1 [Compound I-5] | ≥ 75 | ≥ 750 | ≥ 750 | ≥ 75 |  | 
O=C1c2cc(-c3ccc4[nH]ccc4c3)ccc2Nc2ccc(F)cc2N1c1ccccc1 [Compound I-8] | ≥ 75 | ≥ 750 | ≥ 750 | ≥ 75 |  | 
O=C1c2cc(-c3ccc(N4CCNCC4)cc3)ccc2Nc2ccc(F)cc2N1Cc1ccccc1 [Compound I-1, 10-Benzyl-8-fluoro-2-(4-(piperazin-1-yl)phenyl)-5,10-dihydro-11H-dibenzo[b,e][1,4]diazepin-11-one] | ≥ 75 | ≥ 750 | 500 to 750 | ≥ 75 | < 250 | 
Nc1ccc2c(c1)N(Cc1ccccc1)C(=O)c1cc(-c3ccc4[nH]ccc4c3)ccc1N2 [Compound I-14] |  | ≥ 750 | ≥ 750 |  |  | 
